We go through 42 compounds from patent US8759366B2, “Aminopyrimidines as SYK inhibitors” (Merck Sharp & Dohme Corp., priority 2009, dated 2014).

Molecules are shown by their SMILES. Counter-ions that a name gives are not always drawn.

This experiment has as its target rhSYK (Homo sapiens (Human), UniProt P43405). The conditions noted are these: read-out: rhSYK activity.
Consider `Cc1cc(Nc2nccc(C)n2)cc(-c2cnc(C3(O)CCC(CN)CC3)s2)c1` (stereo not drawn) [Example 4C-2], for which the IC50 is under 100 nM.

As to `Cc1cc(Nc2nccc(C(F)(F)F)n2)cc(-c2cnc(C(C)C)s2)c1` [Example 13, N-{3-methyl-5-[2-(1-methylethyl)-1,3-thiazol-5-yl]phenyl}-4-(trifluoromethyl)pyrimidin-2-amine], the IC50 is under 100 nM.

`Cc1cc(Nc2nccc(C(F)(F)F)n2)cc(-c2cnc([C@]3(O)CC[C@@H](c4n[nH]c(=O)o4)CC3)s2)c1` [Example 55, 5-{cis-4-hydroxy-4-[5-(3-methyl-5-{[4-(trifluoromethyl)pyrimidin-2-yl]amino}phenyl)-1,3-thiazol-2-yl]cyclohexyl}-1,3,4-oxadiazol-2(3H)-one]: the IC50 is under 100 nM.

On to `COC(=O)[C@H](C)Cc1ncc(-c2cc(C)cc(Nc3nccc(C(F)(F)F)n3)c2)s1` [Example 76, Methyl (2R)-2-methyl-3-[5-(3-methyl-5-{[4-(trifluoromethyl)pyrimidin-2-yl]amino}phenyl)-1,3-thiazol-2-yl]propanoate], for which the IC50 is under 100 nM.

Regarding `Cc1cc(Nc2nccc(C)n2)cc(-c2cnc(C3(O)CCC(CO)CC3)s2)c1` (stereo not drawn) [Example 4C-9], the IC50 was under 100 nM.

As for `Cc1cc(Nc2nccc(C(F)(F)F)n2)cc(-c2cnc(C(C)(C)S(C)(=O)=O)s2)c1` [Example 73, N-(3-methyl-5-{2-[2-(methylsulfonyl)propan-2-yl]-1,3-thiazol-5-yl}phenyl)-4-(trifluoromethyl)pyrimidin-2-amine], the IC50 was under 100 nM.

As to `OC1(c2ncc(-c3cc(Nc4nccc(C(F)(F)F)n4)ccc3F)s2)CCC1` [Example 1, 1-[5-(2-fluoro-5-{[4-(trifluoromethyl)pyrimidin-2-yl]amino}phenyl)-1,3-thiazol-2-yl]cyclobutanol], the IC50 was 100 to 1000 nM.

Regarding `Nc1cc(Nc2nccc(C(F)(F)F)n2)cc(-c2cnc(C3(O)CCC3)s2)c1` [Example 17, 1-[5-(3-amino-5-{[4-(trifluoromethyl)pyrimidin-2-yl]amino}phenyl)-1,3-thiazol-2-yl]cyclobutanol], the IC50 is under 100 nM.

As for `C#Cc1cc(Nc2nccc(C(F)(F)F)n2)cc(-c2cnc(C(C)(C)O)s2)c1` [Example 29, 2-[5-(3-ethynyl-5-{[4-(trifluoromethyl)pyrimidin-2-yl]amino}phenyl)-1,3-thiazol-2-yl]propan-2-ol], the IC50 is under 100 nM.

`Cc1cc(Nc2nccc(C(F)(F)F)n2)cc(-c2cnc(CS(N)(=O)=O)s2)c1` [Example 75, 1-[5-(3-methyl-5-{[4-(trifluoromethyl)pyrimidin-2-yl]amino}phenyl)-1,3-thiazol-2-yl]methanesulfonamide]: the IC50 was under 100 nM.

Turning to `CCOC(=O)C1CCC(c2ncc(-c3cc(C)cc(Nc4nccc(C(F)(F)F)n4)c3)s2)CC1` (stereo not drawn) [Example 35, ethyl 4-[5-(3-methyl-5-{[4-(trifluoromethyl)pyrimidin-2-yl]amino}phenyl)-1,3-thiazol-2-yl]cyclohexanecarboxylate], the IC50 is 100 to 1000 nM.

As for `Cc1cc(Nc2nccc(C)n2)cc(-c2cnc(C3(O)C4CC5CC3CC(O)(C5)C4)s2)c1` (stereo not drawn) [Example 4B-29], the IC50 is under 100 nM.

In the case of `FC(F)(F)c1ccnc(Nc2cccc(-c3cncs3)c2)n1` [Intermediate 7, N-[3-(1,3-thiazol-5-yl)phenyl]-4-(trifluoromethyl)pyrimidin-2-amine], the IC50 lay within 100 to 1000 nM.

In the case of `Cc1cc(Nc2nccc(C(F)(F)F)n2)cc(-c2cnc(C3(O)CCN(S(N)(=O)=O)CC3)s2)c1` [Example 49, 4-hydroxy-4-[5-(3-methyl-5-{[4-(trifluoromethyl)pyrimidin-2-yl]amino}phenyl)-1,3-thiazol-2-yl]piperidine-1-sulfonamide], the IC50 was under 100 nM.

For `COc1ccnc(Nc2cc(C)cc(-c3cnc(C4(O)CCC5(CC4)OCCO5)s3)c2)n1` [Example 4B-16], the IC50 is under 100 nM.

On to `CC(C)(CO)c1ncc(-c2cccc(Nc3nccc(C(F)(F)F)n3)c2)s1` [Example 21, 2-methyl-2-[5-(3-{[4-(trifluoromethyl)pyrimidin-2-yl]amino}phenyl)-1,3-thiazol-2-yl]propan-1-ol], for which the IC50 is under 100 nM.

In the case of `O=C(c1ncc(-c2cccc(Nc3nccc(C(F)(F)F)n3)c2)s1)C1CC1` [Example 11, Cyclopropyl[5-(3-{[4-(trifluoromethyl)pyrimidin-2-yl]amino}phenyl)-1,3-thiazol-2-yl]methanone], the IC50 is under 100 nM.

With `Cc1cc(Nc2nccc(C(F)(F)F)n2)cc(-c2cnc(C3(O)CCCC4CC43)s2)c1` (stereo not drawn) [Example 4B-18], the IC50 was under 100 nM.

Take `COC1(c2ncc(-c3cc(C)cc(Nc4nccc(C(F)(F)F)n4)c3)s2)CCC(C(=O)O)CC1` (stereo not drawn) [Example 40(1), 2-({3-[2-(cis-4-Carboxy-1-methoxycyclohexyl)-1,3-thiazol-5-yl]-5-methylphenyl}amino)-4-(trifluoromethyl)pyrimidin-1-ium trifluoroacetate]: the IC50 is under 100 nM.

In the case of `Cc1cc(Nc2nccc(C(F)(F)F)n2)cc(-c2cnc(C3(O)CCC(=O)CC3)s2)c1` [Example 7, 4-hydroxy-4-[5-(3-methyl-5-{[4-(trifluoromethyl)pyrimidin-2-yl]amino}phenyl)-1,3-thiazol-2-yl]cyclohexanone], the IC50 is under 100 nM.

Regarding `CC(=O)NS(=O)(=O)C1(c2ncc(-c3cc(C)cc(Nc4nccc(C(F)(F)F)n4)c3)s2)CCC1` [Example 74, N-({1-[5-(3-methyl-5-{[4-(trifluoromethyl)pyrimidin-2-yl]amino}phenyl)-1,3-thiazol-2-yl]-cyclobutyl}sulfonyl)acetamide], the IC50 is under 100 nM.

On to `Cn1ccc(C(C)(O)c2ncc(-c3cccc(Nc4nccc(C(F)(F)F)n4)c3)s2)c1` (stereo not drawn) [Example 4A-16], for which the IC50 was under 100 nM.

For the compound `Cc1cc(Nc2nccc(C(F)(F)F)n2)cc(-c2cnc(C3(O)CCN(c4ccccc4F)CC3)s2)c1` [4D-11], the IC50 is 100 to 1000 nM.

Turning to `CC(C)(c1ncc(-c2cc(Nc3nccc(C(F)(F)F)n3)cc([N+](=O)[O-])c2)s1)S(N)(=O)=O` [Example 70, 2-[5-(3-nitro-5-{[4-(trifluoromethyl)pyrimidin-2-yl]amino}phenyl)-1,3-thiazol-2-yl]propane-2-sulfonamide], the IC50 was 100 to 1000 nM.

In the case of `Cc1cc(Nc2nccc(C(F)(F)F)n2)cc(-c2cnc(C3(O)CCN(C(=O)OC(C)(C)C)C(C(F)(F)F)C3)s2)c1` (stereo not drawn) [4D-15], the IC50 was 100 to 1000 nM.

On to `Cc1cc(Nc2nccc(C(F)(F)F)n2)cc(-c2cnc(C3(O)CCC4(CCC(=O)N4)CC3)s2)c1` (stereo not drawn) [Example 4B-24], for which the IC50 is under 100 nM.

Regarding `Cc1cc(Nc2nccc(C)n2)cc(-c2cnc(C3(O)CCC(C)(CC(=O)O)CC3)s2)c1` (single isomer, unassigned) [Example 4C-12], the IC50 was under 100 nM.

Take `O=C(c1ncc(-c2cccc(Nc3nccc(C(F)(F)F)n3)c2)s1)C(F)(F)F` [Example 6-1]: the IC50 was under 100 nM.

As to `Cc1cc(Nc2nccc(C(F)(F)F)n2)cc(-c2cnc(C(C)(O)c3ccc(CC(=O)O)cc3)s2)c1` (single isomer, unassigned) [Example 4A-59], the IC50 lay in the range of 100 to 1000 nM.

For `Cc1cc(Nc2nccc(C)n2)cc(-c2cnc(C3(O)CCC(C(=O)O)[C@H]4CCCC[C@@H]43)s2)c1` (stereo partly drawn) [Example 4B-23], the IC50 was under 100 nM.

As for `Cc1cc(Nc2nccc(C)n2)cc(-c2cnc(C3(C)OC(=O)CC3(C)C)s2)c1` (stereo not drawn) [Example 4B-58], the IC50 is under 100 nM.

For the compound `CCOC(=O)C1CCC(O)(c2ncc(-c3cc(C)cc(Nc4nccc(C(F)(F)F)n4)c3)s2)C(C)C1C` (stereo not drawn) [Example 4B-57], the IC50 is under 100 nM.

Regarding `Cc1cc(Nc2nccc(C(F)(F)F)n2)cc(-c2cnc(C(NC(=O)NC(N)=O)(C3CC3)C3CC3)s2)c1` [Example 65, N-{dicyclopropyl[5-(3-methyl-5-{[4-(trifluoromethyl)pyrimidin-2-yl]amino}phenyl)-1,3-thiazol-2-yl]methyl}dicarbonimidic diamide], the IC50 was under 100 nM.

On to `Cc1cc(Nc2nccc(C(F)(F)F)n2)cc(-c2cnc(C3(O)CN(C(C)(C)C(=O)O)C3)s2)c1` [Example 53(1), 2-{3-Hydroxy-3-[5-(3-methyl-5-{[4-(trifluoromethyl)pyrimidin-2-yl]amino}phenyl)-1,3-thiazol-2-yl]azetidin-1-yl}-2-methylpropanoic acid], for which the IC50 was under 100 nM.

With `CC(O)(c1ncc(-c2cccc(Nc3nccc(C(F)(F)F)n3)c2)s1)C1CCNCC1` (stereo not drawn) [Example 15(2), 1-(piperidin-4-yl)-1-[5-(3-{[4-(trifluoromethyl)pyrimidin-2-yl]amino}phenyl)-1,3-thiazol-2-yl]ethanol], the IC50 was under 100 nM.

With `Cc1cc(Nc2nccc(C(F)(F)F)n2)cc(-c2cnc(C(O)C(F)(F)F)s2)c1` (single isomer, unassigned) [Example 6-4], the IC50 is under 100 nM.

For the compound `Cc1cc(Nc2nccc(C(F)(F)F)n2)cc(-c2cnc(C3(O)C4CC5CC(C4)C(C(=O)O)C3C5)s2)c1` (stereo not drawn) [Example 4B-43], the IC50 is under 100 nM.

With `Cc1cc(Nc2nccc(C(F)(F)F)n2)cc(-c2cnc(C3(O)CCCC(C)(CC(=O)O)C3)s2)c1` (stereo not drawn) [Example 4C-23], the IC50 is under 100 nM.

Turning to `Cc1cc(Nc2nccc(C(F)(F)F)n2)cc(-c2cnc(C3(O)CCN(c4ccccc4C)CC3)s2)c1` [4D-9], the IC50 was 100 to 1000 nM.

In the case of `CC(C)(c1ncc(-c2cc(N)cc(Nc3nccc(C(F)(F)F)n3)c2)s1)S(N)(=O)=O` [Example 71, 2-[5-(3-amino-5-{[4-(trifluoromethyl)pyrimidin-2-yl]amino}phenyl)-1,3-thiazol-2-yl]propane-2-sulfonamide], the IC50 is under 100 nM.

With `CC(C)(O)c1ncc(-c2cc(Br)cc(Nc3nccc(C(F)(F)F)n3)c2)s1` [Example 4A-4, 2-[5-(3-bromo-5-{[4-(trifluoromethyl)pyrimidin-2-yl]amino}phenyl)-1,3-thiazol-2-yl]propan-2-ol], the IC50 is under 100 nM.

Consider `COC(=O)NS(=O)(=O)N1CCC(O)(c2ncc(-c3cc(C)cc(Nc4nccc(OC)n4)c3)s2)CC1` [54(1), Methyl {[4-hydroxy-4-(5-{3-[(4-methoxypyrimidin-2-yl)amino]-5-methylphenyl}-1,3-thiazol-2-yl)piperidin-1-yl]sulfonyl}carbamate], for which the IC50 was under 100 nM.
